Experimental data taken from US12503475B2 (Centessa Pharmaceuticals (UK) Limited, priority 2020, dated 2025).
Like-named read-outs stand apart in the source and are kept apart here.

Target: T1, human orexin type 2 receptor (hOX2R) (Homo sapiens, UniProt O43614)
T1 construct: expressed in transfected cells
T1 sequence (O43614 1-444): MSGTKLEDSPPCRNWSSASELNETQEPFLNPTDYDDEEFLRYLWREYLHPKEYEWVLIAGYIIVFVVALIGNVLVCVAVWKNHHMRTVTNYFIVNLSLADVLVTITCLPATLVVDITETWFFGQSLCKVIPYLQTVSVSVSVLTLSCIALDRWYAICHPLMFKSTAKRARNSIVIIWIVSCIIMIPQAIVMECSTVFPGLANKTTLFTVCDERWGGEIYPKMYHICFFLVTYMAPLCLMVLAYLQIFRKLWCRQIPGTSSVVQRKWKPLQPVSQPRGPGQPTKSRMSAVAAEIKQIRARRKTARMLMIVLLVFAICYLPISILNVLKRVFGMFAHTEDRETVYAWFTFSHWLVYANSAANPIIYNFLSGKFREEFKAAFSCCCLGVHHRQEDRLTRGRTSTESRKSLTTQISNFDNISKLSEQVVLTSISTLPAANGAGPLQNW
Experiment: Measurement of orexin type 2 receptor agonist activity (FLIPR calcium fluorescence)
Type: cell-based
Conditions: for EC50: read-out: hOx2 pEC50 (converted); for Emax: CHO, read-out: hOx2 Emax (%)
In short: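 Agonism was read as fluorescence in cells stably expressing human OX2R. E. is the response at 10 μM relative to orexin A as full agonist (100%).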

[1] = CHO cells expressing hOX2R, FLIPR calcium fluorescence

SMILES: COCCNC(=O)N1CC2(CC2)[C@H](NS(=O)(=O)CF)[C@@H]1Cc1cccc(-c2ccccc2)c1F [Compound 357, (6S,7S)-6-((2-fluoro-[1,1′-biphenyl]-3-yl)methyl)-7-((fluoromethyl)sulfonamido)-N-(2-methoxyethyl)-5-azaspiro[2.4]heptane-5-carboxamide]
- EC50 [1]: 10 to 100 nM
- Emax [1]: 90 to 100%

SMILES: C[C@](O)(C(=O)N1CC2(CC2)[C@H](NS(=O)(=O)CF)[C@@H]1Cc1cccc(-c2ccccc2)c1F)C(F)F [Compound 234, N-((6S,7S)-5-((S)-3,3-difluoro-2-hydroxy-2-methylpropanoyl)-6-((2-fluoro-[1,1′-biphenyl]-3-yl)methyl)-5-azaspiro[2.4]heptan-7-yl)-1-fluoromethanesulfonamide]
- EC50 [1]: 1 to 10 nM
- Emax: 90 to 100%

SMILES: O=C([C@H]1CCO1)N1CC2(CC2)[C@H](NS(=O)(=O)C(F)F)[C@@H]1Cc1cc(F)cc(-c2cccc(F)c2)c1F [Compound 176, 1,1-difluoro-N-((6S,7S)-5-((R)-oxetane-2-carbonyl)-6-((2,3′,5-trifluoro-[1,1′-biphenyl]-3-yl)methyl)-5-azaspiro[2.4]heptan-7-yl)methanesulfonamide]
- EC50 [1]: 1 to 10 nM
- Emax [1]: 90 to 100%

SMILES: COC[C@@H](C)N(C)C(=O)N1CC2(CC2)[C@H](NS(C)(=O)=O)[C@@H]1Cc1cccc(-c2ccccc2)c1F [Compound 317, (6S,7S)-6-((2-fluoro-[1,1′-biphenyl]-3-yl)methyl)-N-((R)-1-methoxypropan-2-yl)-N-methyl-7-(methylsulfonamido)-5-azaspiro[2.4]heptane-5-carboxamide]
- EC50 [1]: 1 to 10 nM
- Emax [1]: 90 to 100%

SMILES: CC(C)S(=O)(=O)N[C@@H]1[C@H](Cc2cccc(-c3ccccc3)c2)N(C(=O)[C@H]2CCO2)CC12CC2 [Compound 114, N-((6S,7S)-6-([1,1′-biphenyl]-3-ylmethyl)-5-((R)-oxetane-2-carbonyl)-5-azaspiro[2.4]heptan-7-yl)propane-2-sulfonamide]
- EC50 [1]: 1 to 10 nM
- Emax [1]: 80 to 90%

SMILES: CC(C)(O)C(=O)N1CC2(CC2)[C@H](NS(=O)(=O)CF)[C@@H]1Cc1cc(F)cc(-c2cc(F)cc(F)c2)c1F [Compound 419, 1-fluoro-N-((6S,7S)-5-(2-hydroxy-2-methylpropanoyl)-6-((2,3′,5,5′-tetrafluoro-[1,1′-biphenyl]-3-yl)methyl)-5-azaspiro[2.4]heptan-7-yl)methanesulfonamide]
- EC50 [1]: 1 to 10 nM
- Emax [1]: 90 to 100%

SMILES: C[C@@H](NC(=O)N1CC2(CC2)[C@H](NS(=O)(=O)CF)[C@@H]1Cc1cccc(-c2ccccc2)c1F)C(F)F [Compound 219, (6S,7S)-N-((R)-1,1-difluoropropan-2-yl)-6-((2-fluoro-[1,1′-biphenyl]-3-yl)methyl)-7-((fluoromethyl)sulfonamido)-5-azaspiro[2.4]heptane-5-carboxamide]
- EC50 [1]: 1 to 10 nM
- Emax [1]: 90 to 100%

SMILES: O=C(NCC1(F)CC1)N1CC2(CC2)[C@H](NS(=O)(=O)C(F)F)[C@@H]1Cc1cccc(-c2ccccc2)c1F [Compound 166, (6S,7S)-7-((difluoromethyl)sulfonamido)-6-((2-fluoro-[1,1′-biphenyl]-3-yl)methyl)-N-((1-fluorocyclopropyl)methyl)-5-azaspiro[2.4]heptane-5-carboxamide]
- EC50 [1]: 1 to 10 nM
- Emax [1]: 90 to 100%

SMILES: O=C([C@H](O)CF)N1CC2(CC2)[C@H](NS(=O)(=O)C(F)F)[C@@H]1Cc1cc(F)cc(-c2cc(F)cc(F)c2)c1F [Compound 221, 1,1-difluoro-N-((6S,7S)-5-((S)-3-fluoro-2-hydroxypropanoyl)-6-((2,3′,5,5′-tetrafluoro-[1,1′-biphenyl]-3-yl)methyl)-5-azaspiro[2.4]heptan-7-yl)methanesulfonamide]
- EC50 [1]: 1 to 10 nM
- Emax: 90 to 100%

SMILES: CS(=O)(=O)N[C@@H]1[C@H](Cc2cc(F)cc(-c3ccccc3F)c2F)N(C(=O)[C@H]2CCO2)CC12CC2 [Compound 350, N-((6S,7S)-5-((R)-oxetane-2-carbonyl)-6-((2,2′,5-trifluoro-[1,1′-biphenyl]-3-yl)methyl)-5-azaspiro[2.4]heptan-7-yl)methanesulfonamide]
- EC50 [1]: 10 to 100 nM
- Emax [1]: 90 to 100%

SMILES: CC(C)(O)C(=O)N1CC2(CC2)[C@H](NS(=O)(=O)C2CC2)[C@@H]1Cc1cccc(-c2cc(F)cc(F)c2)c1F [Compound 230, N-((6S,7S)-5-(2-hydroxy-2-methylpropanoyl)-6-((2,3′,5′-trifluoro-[1,1′-biphenyl]-3-yl)methyl)-5-azaspiro[2.4]heptan-7-yl)cyclopropanesulfonamide]
- EC50 [1]: 1 to 10 nM
- Emax [1]: 90 to 100%

SMILES: COCC1(C(=O)N2CC3(CC3)[C@H](NS(C)(=O)=O)[C@@H]2Cc2cccc(-c3ccccc3)c2F)CC1 [Compound 386, N-((6S,7S)-6-((2-fluoro-[1,1′-biphenyl]-3-yl)methyl)-5-(1-(methoxymethyl)cyclopropane-1-carbonyl)-5-azaspiro[2.4]heptan-7-yl)methanesulfonamide]
- EC50 [1]: 1 to 10 nM
- Emax [1]: 90 to 100%

SMILES: CC(C)C(=O)N1CC2(CC2)C(NS(C)(=O)=O)C1Cc1cccc(-c2ccccc2)c1 (racemic) [Compound 15, N-(6-([1,1′-biphenyl]-3-ylmethyl)-5-isobutyryl-5-azaspiro[2.4]heptan-7-yl)methanesulfonamide]
- EC50 [1]: 10 to 100 nM
- Emax [1]: 90 to 100%

SMILES: N#CCS(=O)(=O)N[C@@H]1[C@H](Cc2cccc(-c3ccccc3)c2F)N(C(=O)[C@H]2CCO2)CC12CC2 [Compound 362, 1-cyano-N-((6S,7S)-6-((2-fluoro-[1,1′-biphenyl]-3-yl)methyl)-5-((R)-oxetane-2-carbonyl)-5-azaspiro[2.4]heptan-7-yl)methanesulfonamide]
- EC50 [1]: 10 to 100 nM
- Emax [1]: 90 to 100%

SMILES: O=C(NCCF)N1CC2(CC2)[C@H](NS(=O)(=O)C(F)F)[C@@H]1Cc1cccc(-c2ccccc2)c1F [Compound 207, (6S,7S)-7-((difluoromethyl)sulfonamido)-6-((2-fluoro-[1,1′-biphenyl]-3-yl)methyl)-N-(2-fluoroethyl)-5-azaspiro[2.4]heptane-5-carboxamide]
- EC50 [1]: 1 to 10 nM
- Emax [1]: 90 to 100%

SMILES: O=C(NC[C@@H]1CCO1)N1CC2(CC2)[C@H](NS(=O)(=O)CF)[C@@H]1Cc1cccc(-c2ccccc2)c1F [Compound 374, (6S,7S)-6-((2-fluoro-[1,1′-biphenyl]-3-yl)methyl)-7-((fluoromethyl)sulfonamido)-N-(((S)-oxetan-2-yl)methyl)-5-azaspiro[2.4]heptane-5-carboxamide]
- EC50 [1]: 1 to 10 nM
- Emax [1]: 90 to 100%

SMILES: CC(C)C(=O)N1CC2(CC2)C(NS(C)(=O)=O)C1Cc1cccc(-c2cccc(F)c2)c1 (racemic) [Compound 8, N-(6-((3′-fluoro-[1,1′-biphenyl]-3-yl)methyl)-5-isobutyryl-5-azaspiro[2.4]heptan-7-yl)methanesulfonamide]
- EC50 [1]: 1 to 10 nM
- Emax [1]: 90 to 100%

SMILES: C[C@@H](F)C(=O)N1CC2(CC2)[C@H](NS(=O)(=O)CF)[C@@H]1Cc1cc(F)cc(-c2cccc(F)c2)c1F [Compound 394]
- EC50 [1]: 0.0794 to 1 nM
- Emax [1]: 90 to 100%

SMILES: C[C@@H](NC(=O)N1CC2(CC2)[C@H](NS(=O)(=O)CF)[C@@H]1Cc1cccc(-c2ccccc2)c1F)C(F)(F)F [Compound 209, (6S,7S)-6-((2-fluoro-[1,1′-biphenyl]-3-yl)methyl)-7-((fluoromethyl)sulfonamido)-N-((R)-1,1,1-trifluoropropan-2-yl)-5-azaspiro[2.4]heptane-5-carboxamide]
- EC50 [1]: 0.0794 to 1 nM
- Emax [1]: 90 to 100%

SMILES: CC(C#N)C(=O)N1CC2(CC2)[C@H](NS(C)(=O)=O)[C@@H]1Cc1cccc(-c2ccccc2)c1F (stereo partly drawn) [Compound 358, N-((6S,7S)-5-(2-cyanopropanoyl)-6-((2-fluoro-[1,1′-biphenyl]-3-yl)methyl)-5-azaspiro[2.4]heptan-7-yl)methanesulfonamide]
- EC50 [1]: 1 to 10 nM
- Emax [1]: 90 to 100%

SMILES: C[C@@H](C#N)C(=O)N1CC2(CC2)[C@H](NS(C)(=O)=O)[C@@H]1Cc1cccc(-c2ccccc2)c1 [Compound 309, N-((6S,7S)-6-([1,1′-biphenyl]-3-ylmethyl)-5-((S)-2-cyanopropanoyl)-5-azaspiro[2.4]heptan-7-yl)methanesulfonamide]
- EC50 [1]: 10 to 100 nM
- Emax [1]: 90 to 100%

SMILES: CC(C)(F)CNC(=O)N1CC2(CC2)[C@H](NS(=O)(=O)CF)[C@@H]1Cc1cccc(-c2ccccc2)c1F [Compound 410, (6S,7S)-N-(2-fluoro-2-methylpropyl)-6-((2-fluoro-[1,1′-biphenyl]-3-yl)methyl)-7-((fluoromethyl)sulfonamido)-5-azaspiro[2.4]heptane-5-carboxamide]
- EC50 [1]: 1 to 10 nM
- Emax [1]: 90 to 100%

SMILES: CC(C)S(=O)(=O)N[C@@H]1[C@H](Cc2cccc(-c3cc(F)cc(F)c3)c2F)N(C(=O)[C@H]2CCO2)CC12CC2 [Compound 222, N-((6S,7S)-5-((R)-oxetane-2-carbonyl)-6-((2,3′,5′-trifluoro-[1,1′-biphenyl]-3-yl)methyl)-5-azaspiro[2.4]heptan-7-yl)propane-2-sulfonamide]
- EC50 [1]: 0.0794 to 1 nM
- Emax [1]: 90 to 100%

SMILES: CN(C)C(=O)N1CC2(CC2)[C@H](NS(C)(=O)=O)[C@@H]1Cc1cccc(-c2ccccc2)c1F [Compound 110, (6S,7S)-6-((2-fluoro-[1,1′-biphenyl]-3-yl)methyl)-N,N-dimethyl-7-(methylsulfonamido)-5-azaspiro[2.4]heptane-5-carboxamide]
- EC50 [1]: 0.0794 to 1 nM
- Emax: 90 to 100%
